Source: article PMC12196213, “New Insights into the Anticancer Effects and Toxicogenomic Safety of Two β-Lapachone Derivatives” (Pharmaceuticals, 2025)

Columns and labels:
[1] = parameters: method as in PMID 35934135; details: cited from earlier work; for toxicity category, Globally Harmonized System of Classification and Labelling of Chemicals: acute toxicity; for deaths in acute toxicity experiments: dose of 2000 mg/kg
HeLa cells = assay: Morphological analysis, rapid panoptic staining; assay type: cell-based, human; details: 72 h, at IC50 and 2 × IC50
Protocol: Following the screening of IC50 values and SI in solid tumor cells, indications of potential cell death were explored in the most sensitive cell line. The morphological changes were evaluated according to protocols previously published with modifications. Thus, HeLa cells were seeded in 12-well plates at a concentration of 4 × 10^5 cells/mL and incubated overnight for adhesion. […] After the treatment period, the medium was aspirated, and the plate was washed twice with PBS. The cells were fixed and stained using the Panoptic Rapid Kit following the manufacturer’s protocol. Morphological analyses were conducted to observe cellular alterations indicative of cell death, including cellular volume reduction, membrane integrity, karyolysis, pyknosis, karyorrhexis, apoptotic bodies, vacuoles, and cellular debris.

[2] = system: peripheral blood erythrocytes from Swiss mice; assay: Alkaline comet assay in vivo; parameters: species or system Mus musculus; details: for damage frequency (comet assay) compared to negative control / damage index (comet assay) compared to negative control: intraperitoneally
Protocol: (§1) Forty female Mus musculus mice (Swiss strain) were used. The animals were divided into 8 groups, with 5 animals each: G1—negative control (NC) treated with the vehicle solution intraperitoneally; G2—positive control (PC) treated intraperitoneally with cyclophosphamide at a dose of 30 mg/kg; groups exposed to the BV3 derivative—Group BV3—I intraperitoneally at doses of 2000 mg/kg; Group BV3—II 1000 mg/kg; Group BV3—III 500 mg/kg; and groups exposed to BV5—Group BV5—I, received BV5 intraperitoneally at doses of 2000 mg/kg; Group BV5—II 1000 mg/kg; and Group BV5—III 500 mg/kg. For the comet assay, approximately 0.5 mL of blood from each animal was collected via the tail vein 6–8 h after administration of the compounds. For the micronucleus test, 1 mL of blood from each animal was collected by cardiac puncture 48 h after administration of the compounds. For that collection, the mice were anesthetized with ketamine (100 mg/kg) and xylazine (10 mg/kg), intraperitoneally. Immediately after blood collection, the animals were euthanized with high doses of anesthetics (ketamine 300 mg/kg and xylazine 30 mg/kg). The in vivo experiments were approved by the Ethics Committee on the Use of Animals (CEUA) of the Federal University of Pernambuco, under process no. 004/2023.
The female mice (n = 40) were equally distributed into 8 experimental groups; the groups were composed of 5 female animals each. After administering the solutions and compounds to the groups, blood samples were taken 6 and 8 h after treatment. Subsequently, 15 µL of blood was used, which was homogenized with 100 µL of low-melting-point agarose (LM agarose) and subsequently deposited on slides previously prepared with standard agarose. The slides were covered with coverslips and left at 4 °C for 10 min. After refrigeration, the coverslips were removed and the slides were placed in a lysis solution (2.5 M NaCl, 100 mM EDTA, 10 mM tris, 1% Triton x-100, 10% DMSO, pH 13) for 48 h. After lysis, the slides were left in an alkaline electrophoresis buffer ([…] and […] EDTA disodium salt, pH 13) for 20 min to unroll the DNA and then subjected to electrophoresis in a horizontal vat for 20 min, with a current of ± 300 mA and potential difference of 32 V. After electrophoresis, the slides were neutralized for 15 min in 0.4 M tris-HCl buffer, pH 7.5, and fixed for 5 min in absolute ethanol. The slides were stained with 100 µL of a 1 µg/mL acridine orange solution. All test steps were carried out under red light. To analyze damage levels, 100 nucleoids from each animal were evaluated for damage level. For this, each nucleoid was classified into one of five classes according to the proportion of DNA in the comet’s tail and head: 0 (no damage); 1 (little apparent damage); 2 (medium damage); 3 (medium damage with longer tail); and 4 (maximum damage). The Damage Index (DI) was thus calculated according to the formula DI=0×nºclass comets 0+1×nºclass comets 1+2×nºclass comets 2+3×nºclass comets 3+4×(nºclass comets 4)
Thus, the values obtained could range from 0 (no damage) to 400 (maximum damage). Additionally, the Frequency of damage (FD) was calculated based on the percentage of all nucleoids with some damage (class 1 to class 4) relative to the total number of nucleoids counted per animal: FD=nºofdamaged comets−nºclass comets 0×100/(nºtotal)

[3] = system: polychromatic erythrocytes (PCE) from Swiss mice; assay: Micronucleus assay in vivo; parameters: species or system Mus musculus; details: intraperitoneally, 500, 1000 and 2000 mg/kg, blood 48 h after administration
Protocol: as §1, with “Immediately after blood collection, the animals were euthanized with high doses of anesthetics (ketamine 300 mg/kg and xylazine 30 mg/kg). The in vivo experiments were approved by the Ethics Committee on the Use of Animals (CEUA) of the Federal University of Pernambuco, under process no. 004/2023.” left out
The same mice from the comet test (females n = 40) were used, equally with the 8 experimental groups mentioned above. […] Two slides were prepared per animal, in which 2000 polychromatic erythrocytes (PCE) were analyzed for the presence of micronuclei. The analysis was carried out using a Zeiss Axio Imager M2 fluorescence microscope, with a 40× objective and Alexa Fluor 488 filter (Carl Zeiss AG™, Germany).

[4] = system: L929 (murine fibroblasts); assay: MTT cytotoxicity assay, L929; assay type: cell-based; details: Mus musculus, L929, 72 h
Protocol: To assess the cytotoxicity of the compounds, the MTT [3-(4,5-dimethylthiazol-2-yl)-2,5-diphenyltetrazolium bromide] assay was employed. The cells (2 × 10^5/mL) were incubated with the substances at concentrations ranging from 0.78 to 25 µg/mL. β-lap was used as a positive control. After 24, 48, or 72 h of incubation, MTT was added at a concentration of 5 mg/mL. Cell viability in different treatments was compared to the negative control using the following formula: Cell viability%=mean absorbance of treated samples/mean absorbance of negative control×100 The IC50 (the concentration that inhibits 50% of cell growth compared to the negative control) was calculated using nonlinear regression in GraphPad Prism 8.0 for Windows (GraphPad Demo Software, San Diego, CA, USA). Experiments were performed in triplicate and in two independent experiments. The protocol is also described in other previous publications.

Row | Structure (SMILES) | toxicity category, Globally Harmonized System of Classification and Labelling of Chemicals [1] | deaths in acute toxicity experiments [1] | morphological changes (HeLa cells) | damage frequency (comet assay) compared to negative control ([2]; 2000 mg/kg) | damage index (comet assay) compared to negative control ([2]; 2000 mg/kg) | damage frequency (comet assay) compared to negative control ([2]; 500 and 1000 mg/kg) | damage index (comet assay) compared to negative control ([2]; 500 and 1000 mg/kg) | number of micronuclei compared to negative control [3] | IC50 [4] | frequency of damage (comet assay) ([2]; any of the tested doses (500, 1000, 2000 mg/kg))
1 | CC1(C)CCC2=C(O1)c1ccccc1/C(=N/NC(=S)Nc1ccc([N+](=O)[O-])cc1)C2=O [BV3, 2-(2,2-dimethyl-5-oxo-3,4-dihydro-2H-benzo[h]chromen-6(5H)-ylidene)-N-(4nitrophen-yl)thio-carbohydrazide] | Category 5 | no deaths | reduced cellular volume, cells with condensed chromatin, and cellular debris | decrease | decrease | no significant differences | no significant differences | no differences | 44 µM | 
2 | Cc1ccc(NC(=S)N/N=C2\C(=O)C3=C(OC(C)(C)CC3)c3ccccc32)cc1 [BV5, 2-(2,2-dimethyl-5-oxo-3,4-dihydro-2H-benzo[h]chromen-6(5H)-ylidene)-N-(p-tolyl)-thiocarbohydrazide] | Category 5 | no deaths | loss of membrane integrity, reduced cellular volume, presence of fragmented/pyknotic nuclei, chromatin condensation, and cellular debris |  | increase |  | no differences | no differences | 13.1 µM | no difference
3 | CC1(C)CCC2=C(O1)c1ccccc1C(=O)C2=O [β-lap, β-Lapachone] |  |  |  |  |  |  |  |  | 4.54 µM | 
